From US20250108038A1 (priority 2023, published 2025)
“And” between values parts separate entries of the source, which are not always exact repeats. Equal values may be shown once.

System: Long Evans rats
Test: Behavioral satiety sequence (BSS)
Format: in vivo, Long Evans rat
Text: The Behavioural Satiety Sequence (BSS) is a technique used to evaluate physiological satiety. It is based on the expression of a sequence of behaviors including eating, grooming, locomotor activity, followed by resting, which are typically observed in rodents post-ingestion (Halford et al, 1998, Pharmacology Biochemistry and Behaviour. 61(2): 159-168). The BSS is a widely used model for determining the effects of novel pharmaceuticals on food intake and measures of satiety in rodents (Oliveira et al, 2011, Revista de Nutrição. 24(4) 619-628), and to discriminate the cause of reduced food intake following pharmacological manipulation. For example, treatments that may reduce food intake by non-specific mechanisms, such as immobility, malaise, and taste adulteration, will disrupt this sequence (Halford et al, 1998, Pharmacology Biochemistry and Behaviour. 61(2): 159-168).
Specifically, 12 male Long-Evans rats were food-deprived for 22 h with a 2 h feeding period each day. Rats were trained to consume daily food during the 2 h period over 25 days. The testing phase was initiated once the rats consistently consumed 16-18 g of food per day with ≤10% variance in amount of feed consumed. Feeding took place in designated individual boxes in a quiet room separate from the housing room. Continuous remote monitoring via video camera during feeding was used to assess the BSS. Food consumption was measured by weighing the total available food before and after the 2 h feeding window, correcting for spillage. Lorcaserin (1 mg/kg) was included as a reference control (Higgins et al, 2011, Neuropsychopharmacology. 37(5): 1177-1191). Subjects were tested using a repeated-measures, Latin square design with 2-3 days wash-out between treatment cycles.
On scheduled test days, animals were monitored remotely via video camera during the feeding access period. The occurrence of four mutually exclusive behaviors (eating/drinking, grooming, active, rest) were individually scored. Over the 2 h feeding period, behaviors were assessed every 30 seconds. Scores were compiled into 23 5 min timebins (timebin 24 was removed due to early removal of animals) and the frequency of each behavior within each timebin was calculated to determine a temporal frequency of each measure (Rodgers et al, 2010, Pharmacology Biochemistry and Behaviour. 97: 3-14). Percentage time was plotted for each behavioral sequence in each timebin to compare between treatment groups (Higgins et al, 2011, Neuropsychopharmacology. 37(5): 1177-1191).

[1] = Compound I-19 0.1 mg/kg, AVG of animals LT-1 to LT-12, 0-0.5 hours
[2] = Compound I-19 0.1 mg/kg, raw data per animal LT-1 to LT-12, 0-0.5 hours
[3] = Compound I-19 0.1 mg/kg, raw score per animal (LT-1 to LT-12)
[4] = Compound I-19 0.3 mg/kg, AVG of animals LT-1 to LT-12

In the case of Clc1ccc(C2(OCC3OCCO3)c3ccccc3C3=NCCN32)cc1 (stereo not drawn) [Compound I-19], the “BSS scoring E (eating/drinking), Time Bin 4 (15-20 TOTAL), AVG” value [1] is reported as 0.87, the “BSS scoring E (eating/drinking), Time Bin 5 (20-25 TOTAL), AVG” value [1] is reported as 0.89 and the “BSS scoring E (eating/drinking), Time Bin 6 (25-30 TOTAL), AVG” value [1] is reported as 0.81. For the same molecule, the “BSS scoring G (grooming), Time Bin 1 (0-5 TOTAL), AVG” value [1] was 0.02, the “BSS scoring G (grooming), Time Bin 2 (5-10 TOTAL), AVG” value [1] was 0.00 and the “BSS scoring G (grooming), Time Bin 3 (10-15 TOTAL), AVG” value [1] was 0.03. The “BSS scoring G (grooming), Time Bin 4 (15-20 TOTAL), AVG” value [1] was 0.03, the “BSS scoring G (grooming), Time Bin 5 (20-25 TOTAL), AVG” value [1] was 0.00 and the “BSS scoring G (grooming), Time Bin 6 (25-30 TOTAL), AVG” value [1] was 0.04. For the same molecule, the “BSS scoring R (resting), Time Bin 1 (0-5 TOTAL), AVG” value [1] was 0.00, the “BSS scoring R (resting), Time Bin 2 (5-10 TOTAL), AVG” value [1] was 0.00 and the “BSS scoring R (resting), Time Bin 3 (10-15 TOTAL), AVG” value [1] was 0.00. The “BSS scoring R (resting), Time Bin 4 (15-20 TOTAL), AVG” value [1] was 0.02, the “BSS scoring R (resting), Time Bin 5 (20-25 TOTAL), AVG” value [1] was 0.03 and the “BSS scoring R (resting), Time Bin 6 (25-30 TOTAL), AVG” value [1] was 0.02. The “BSS scoring A (active), Time Bin 1 (0-5 TOTAL)” value [2] was 0 (3×) and 1 (7×) and 2 (2×), the “BSS scoring A (active), Time Bin 2 (5-10 TOTAL)” value [2] was 1 (5×) and 0 (7×) and the “BSS scoring A (active), Time Bin 3 (10-15 TOTAL)” value [2] was 1 (3×) and 0 (9×). The “BSS scoring A (active), Time Bin 4 (15-20 TOTAL)” value [2] was 5 and 0 (8×) and 4 and 1 (2×), the “BSS scoring A (active), Time Bin 5 (20-25 TOTAL)” value [2] was 1 (3×) and 0 (7×) and 3 (2×) and the “BSS scoring A (active), Time Bin 6 (25-30 TOTAL)” value [2] was 3 (2×) and 1 (6×) and 0 (3×) and 4. For the same molecule, the “BSS scoring E (eating/drinking), Time Bin 1 (0-5 TOTAL)” value [2] was 10 (3×) and 8 (4×) and 9 (5×), the “BSS scoring E (eating/drinking), Time Bin 2 (5-10 TOTAL)” value [2] was 9 (5×) and 10 (7×) and the “BSS scoring E (eating/drinking), Time Bin 3 (10-15 TOTAL)” value [2] was 9 (6×) and 10 (6×). For the same molecule, the “BSS scoring E (eating/drinking), Time Bin 4 (15-20 TOTAL)” value [2] was 5 and 10 (5×) and 9 (5×) and 4, the “BSS scoring E (eating/drinking), Time Bin 5 (20-25 TOTAL)” value [2] was 9 (3×) and 10 (6×) and 6 and 7 (2×) and the “BSS scoring E (eating/drinking), Time Bin 6 (25-30 TOTAL)” value [2] was 5 (2×) and 8 (4×) and 9 (2×) and 10 (3×) and 7. The “BSS scoring G (grooming), Time Bin 1 (0-5 TOTAL)” value [2] was 0 (10×) and 1 (2×), the “BSS scoring G (grooming), Time Bin 2 (5-10 TOTAL)” value [2] was 0 and the “BSS scoring G (grooming), Time Bin 3 (10-15 TOTAL)” value [2] was 0 (9×) and 1 (3×). For the same molecule, the “BSS scoring G (grooming), Time Bin 4 (15-20 TOTAL)” value [2] was 0 (9×) and 1 (3×), the “BSS scoring G (grooming), Time Bin 5 (20-25 TOTAL)” value [2] was 0 and the “BSS scoring G (grooming), Time Bin 6 (25-30 TOTAL)” value [2] was 0 (7×) and 1 (5×). For the same molecule, the “BSS scoring R (resting), Time Bin 1 (0-5 TOTAL)” value [2] was 0, the “BSS scoring R (resting), Time Bin 2 (5-10 TOTAL)” value [2] was 0 and the “BSS scoring R (resting), Time Bin 3 (10-15 TOTAL)” value [2] was 0. The “BSS scoring R (resting), Time Bin 4 (15-20 TOTAL)” value [2] was 0 (10×) and 1 (2×), the “BSS scoring R (resting), Time Bin 5 (20-25 TOTAL)” value [2] was 0 (9×) and 1 (2×) and 2 and the “BSS scoring R (resting), Time Bin 6 (25-30 TOTAL)” value [2] was 2 and 0 (11×). For the same molecule, the “BSS scoring A (active), Time Bin 19 (90-95 TOTAL)” value [3] was 8 and 2 (6×) and 5 and 1 and 7 and 0 and 3, the “BSS scoring A (active), Time Bin 20 (95-100 TOTAL)” value [3] was 1 (4×) and 0 (4×) and 2 (3×) and 6 and the “BSS scoring A (active), Time Bin 21 (100-105 TOTAL)” value [3] was 0 (8×) and 3 and 1 and 4 and 2. The “BSS scoring A (active), Time Bin 22 (105-110 TOTAL)” value [3] was 0 (6×) and 4 and 1 (2×) and 2 and 5 and 3, the “BSS scoring A (active), Time Bin 23 (110-115 TOTAL)” value [3] was 1 and 0 (5×) and 4 and 2 (2×) and 8 and 5 and 3 and the “BSS scoring A (active), Time Bin 24 (115-120 TOTAL)” value [3] was 0 (5×) and 4 and 1 (2×) and 2 (2×) and 3 and 6. For the same molecule, the “BSS scoring E (eating/drinking), Time Bin 19 (90-95 TOTAL)” value [3] was 2 and 4 (3×) and 6 and 0 and 7 (3×) and 3 and 10 and 8, the “BSS scoring E (eating/drinking), Time Bin 20 (95-100 TOTAL)” value [3] was 9 and 5 and 10 (3×) and 7 (2×) and 0 and 8 and 6 (2×) and 3 and the “BSS scoring E (eating/drinking), Time Bin 21 (100-105 TOTAL)” value [3] was 10 (3×) and 3 and 9 (3×) and 0 and 8 (2×) and 5 and 6. The “BSS scoring E (eating/drinking), Time Bin 22 (105-110 TOTAL)” value [3] was 10 (2×) and 3 and 9 (2×) and 0 and 6 (2×) and 8 (3×) and 4, the “BSS scoring E (eating/drinking), Time Bin 23 (110-115 TOTAL)” value [3] was 9 (5×) and 10 and 3 (2×) and 0 and 4 and 5 and 7 and the “BSS scoring E (eating/drinking), Time Bin 24 (115-120 TOTAL)” value [3] was 10 (2×) and 5 and 8 (3×) and 2 and 0 (2×) and 6 and 1 and 4. The “BSS scoring G (grooming), Time Bin 19 (90-95 TOTAL)” value [3] was 0 (8×) and 1 (4×), the “BSS scoring G (grooming), Time Bin 20 (95-100 TOTAL)” value [3] was 0 (8×) and 2 (2×) and 1 (2×) and the “BSS scoring G (grooming), Time Bin 21 (100-105 TOTAL)” value [3] was 0 (8×) and 1 (3×) and 2. For the same molecule, the “BSS scoring G (grooming), Time Bin 22 (105-110 TOTAL)” value [3] was 0 (8×) and 2 and 1 (3×), the “BSS scoring G (grooming), Time Bin 23 (110-115 TOTAL)” value [3] was 0 (8×) and 1 (4×) and the “BSS scoring G (grooming), Time Bin 24 (115-120 TOTAL)” value [3] was 0 (9×) and 1 (2×) and 2. The “BSS scoring R (resting), Time Bin 19 (90-95 TOTAL)” value [3] was 0 (7×) and 4 and 1 (2×) and 9 and 3, the “BSS scoring R (resting), Time Bin 20 (95-100 TOTAL)” value [3] was 0 (6×) and 2 (2×) and 10 and 1 (3×) and the “BSS scoring R (resting), Time Bin 21 (100-105 TOTAL)” value [3] was 0 (7×) and 4 and 1 (2×) and 10 and 2. The “BSS scoring R (resting), Time Bin 22 (105-110 TOTAL)” value [3] was 0 (4×) and 1 (5×) and 8 and 3 and 2, the “BSS scoring R (resting), Time Bin 23 (110-115 TOTAL)” value [3] was 0 (3×) and 2 (2×) and 1 (6×) and 4 and the “BSS scoring R (resting), Time Bin 24 (115-120 TOTAL)” value [3] was 0 (8×) and 1 (2×) and 8 and 5. The “BSS scoring A (active), Time Bin 19 (90-95 TOTAL), AVG” value [4] was 0.21, the “BSS scoring A (active), Time Bin 20 (95-100 TOTAL), AVG” value [4] was 0.17 and the “BSS scoring A (active), Time Bin 21 (100-105 TOTAL), AVG” value [4] was 0.06. The “BSS scoring A (active), Time Bin 22 (105-110 TOTAL), AVG” value [4] was 0.08, the “BSS scoring A (active), Time Bin 23 (110-115 TOTAL), AVG” value [4] was 0.28 and the “BSS scoring A (active), Time Bin 24 (115-120 TOTAL), AVG” value [4] was 0.14. The “BSS scoring E (eating/drinking), Time Bin 19 (90-95 TOTAL), AVG” value [4] was 0.63, the “BSS scoring E (eating/drinking), Time Bin 20 (95-100 TOTAL), AVG” value [4] was 0.69 and the “BSS scoring E (eating/drinking), Time Bin 21 (100-105 TOTAL), AVG” value [4] was 0.73. The “BSS scoring E (eating/drinking), Time Bin 22 (105-110 TOTAL), AVG” value [4] was 0.69, the “BSS scoring E (eating/drinking), Time Bin 23 (110-115 TOTAL), AVG” value [4] was 0.52 and the “BSS scoring E (eating/drinking), Time Bin 24 (115-120 TOTAL), AVG” value [4] was 0.44.
